From a melting point compilation (Tetko et al.) come the findings set out here.

As a reminder, the melting point is the temperature, or range, at which the solid turns liquid. Compound `CCOC(=O)c1nnsc1N` came in with a melting point of 124 °C. The same measure for `Cc1cc(Br)ccc1C(=O)O`: 183 °C. The same measure for `ClCCN(CCCl)c1ccc2ccccc2c1`: 55 °C. The same measure for `NC(=S)c1c(Cl)cc(C(F)(F)F)cc1Cl`: 176 to 178 °C; for `Cc1noc(-c2ccccc2Br)n1`: 43 to 44 °C.

Take `O=C(c1ccccc1)c1ccc2n1CCC2C(=O)O` (centres undefined): the melting point is 160 °C. The figure for `O=[N+]([O-])c1ccc(NN=C(c2ccccc2)c2ccccc2)cc1` is 156 °C. `O=[N+]([O-])c1ccc2c3c(cccc13)-c1ccccc1-2` came in with a melting point of 153 to 157 °C. The figure for `Clc1cc(Br)cc(Br)c1` is 93 °C. The figure for `CC(=O)Oc1c(-c2ccc(-c3[nH]c4cc([N+](=O)[O-])ccc4c3OC(C)=O)cc2)[nH]c2cc([N+](=O)[O-])ccc12` is 280 °C; for `COc1cccc(C)c1[N+](=O)[O-]` it is 50 °C; for `Cc1nn2c(C)nnc2s1` it is 93 °C.

For the compound `Cc1ccc(N2CSc3nnc(-c4cccc([N+](=O)[O-])c4)n3C2)cc1`, the melting point is above 300 °C.

On to `CCCSc1sc(C(=O)OC)c2c1C(=O)CC(C)(C)C2`, for which the melting point lay in the range of 95 to 98 °C.

`N#CC(C#N)=c1c(F)c(F)c(=C(C#N)C#N)c(F)c1F` registered a melting point of 291 °C. The same measure for `O=Cc1coc2ccccc2c1=O`: 151 to 155 °C; for `Nc1cc(C(F)(F)F)ccc1N1CCCCC1`: 41 to 43 °C; for `CC(=O)OC1CC[C@@]2(C)C(=CC[C@@H]3[C@@H]2CC[C@@]2(C)[C@H]3CC[C@]2(O)C#Cc2ccccc2)C1` (some centres undefined): 147 to 148 °C.

For `CN(C)c1ccc(C2C3=C(CC(C)(C)CC3=O)Nc3c2ccc2ccccc32)cc1` (centres undefined), the melting point was found to be 271 °C. The same measure for `COC(=O)C1=C(C)NC(C)=C(C(=O)OC)C1c1ccc(OC)cc1`: 173 to 177 °C; for `CCOC(=O)c1ccsc1N`: 42 to 44 °C; for `O=C(O)c1c(O)cccc1O`: 160 to 165 °C. In the case of `CC(=O)Nc1ccc(Br)cc1OC(F)(F)F`, the melting point is 136 °C. Compound `SC1=NC2(CCCCC2)NN1c1ccccc1` returned a melting point of 146 to 149 °C.

The compound `COc1c(Cl)c(Cl)c(O)c(Cl)c1Cl` registered a melting point of 116 °C. The same measure for `OCc1ccc(Cl)nc1`: 48 °C; for `Cc1ccnc2c1NC(=O)c1cccnc1N2C1CC1`: 265 °C. The figure for `CC12CCC(CC/C1=N\Nc1ccc([N+](=O)[O-])cc1[N+](=O)[O-])C2(C)C` (centres undefined) is 232 to 233 °C. The figure for `CC1(C)OCC2OC3OC(C)(C)OC3C2O1` (centres undefined) is 42 to 46 °C; for `CC(=C(C)c1ccccc1)c1ccccc1` it is 64 to 66 °C. On to `[O-][P+](O)(O)CCN(CP(c1ccccc1)c1ccccc1)CP(c1ccccc1)c1ccccc1`, for which the melting point worked out at 147 °C.

`Cc1nc(Br)sc1C(=O)O` displayed a melting point of 149 to 150 °C. As for `NC(=O)NN=C(O)Cc1ccccc1`, the melting point turned out to be 168 °C. The figure for `O=P(O)(O)OC1C(O)C(O)C(O)C(O)C1O` (centres undefined) is 195 °C. `COP(=S)(OC)SCN1C(=O)c2ccccc2C1=O` displayed a melting point of 72 °C.

Turning to `CCCc1nn(-c2ccccc2)c(=O)n1C(N)=O`, the melting point turned out to be 133 °C.

Consider `CCOC(=O)C1=C(N)CCC1`, for which the melting point was in the range of 57 to 60 °C. The figure for `CCCCN1CCCCC1C(=O)Nc1c(C)cccc1C` (centres undefined) is 107 °C. The figure for `COc1ccc(C=C2C(=O)NC(=O)NC2=O)cc1OC` is 265 °C.

`CC1(C)N[C@H](C(=O)O)Cc2c1[nH]c1ccccc21` had a melting point of 227 to 228 °C.

Compound `Cc1ccc2ncoc2c1` returned a melting point of 29 to 31 °C. The same measure for `CC(C)C(C)(C)C`: -25 °C; for `Nc1ccccc1C(=NO)c1ccccc1`: 157 to 158 °C; for `COC(=O)C(C#N)=C(NC(=O)c1ccccc1)SC`: 129 to 131 °C.

In turn, `COC(=O)Nc1nc2ccc(C(=O)c3cccs3)cc2[nH]1` gave a melting point of 300 to 305 °C.

As to `CC(C)Nc1ccccc1`, the melting point was -10 °C.

Compound `CSc1nc(N)nc(C23CC4CC(CC(C4)C2)C3)n1` gave a melting point of 208 to 210 °C.

The compound `Fc1ccc(S)cc1F` gave a melting point of 34 to 38 °C. The same measure for `CCC(C)OC(C)CC` (centres undefined): -100 °C. The figure for `O=C(O)C(O)Cc1ccccc1` (centres undefined) is 121 to 125 °C. The same measure for `Cc1nn(C)c2ncnc(N)c12`: 190 °C; for `COC(=O)c1ccc(S(=O)(=O)c2ccc(C(=O)OC)cc2)cc1`: 193 to 200 °C. With `COc1ccc(C2C(C#N)=C(N)Oc3cc(C)n(CCc4ccccc4)c(=O)c32)cc1` (centres undefined), the melting point stood at 264 °C. The same measure for `COC(=O)Nc1nc2cc(C(=O)C3CC3)ccc2[nH]1`: 250 °C. The same measure for `CS(=O)(=O)Nc1ccc(C#N)cc1`: 194 °C; for `O=CC[C@@H](O)[C@H](O)CO`: 91 °C.

For `Nc1nc(S)nc(S)n1`, the melting point came out at 300 °C. The figure for `COC(=O)c1cc2ccccc2s1` is 70 °C; for `CC(C)S(=O)(=O)O` it is -37 °C; for `CCOC(=O)NNC(=O)Nc1ccc(Cl)c(Cl)c1` it is 207 °C. The same measure for `O=C(Nc1nnc(-c2ccc(Cl)cc2)o1)c1ccc(Cl)cc1`: 278 to 279 °C; for `CC(=O)Nc1ccc(C=Cc2ccccc2)c([N+](=O)[O-])c1`: 192 °C; for `Cn1ccnc1`: -6 °C. Take `O=C=Nc1ccccc1Cl`: the melting point was determined as 30.5 °C. The same measure for `COC(=O)C1(S(=O)(=O)c2ccc(Br)cc2)CCC1`: 95 °C; for `O=C1NC(=O)C(Cl)C(=O)N1`: 320 °C.

`O=C(c1ccccc1)c1ccc(N2CCOCC2)cc1`: the melting point lay within 142 to 145 °C.

As for `O=C(O)COC(=O)c1cc(Oc2ccc(C(F)F)cc2Cl)ccc1[N+](=O)[O-]`, the melting point turned out to be 65 °C. The figure for `N#Cc1cccnc1Cl` is 107 to 109 °C; for `CC(=O)Oc1ccc2c(c1)c(OC(C)=O)c(-c1ccccc1)n2OC(C)=O` it is 194 to 196 °C. The same measure for `CCOCOc1ccc(C(=O)Nc2cccc(Cl)c2Cl)cc1`: 92.5 °C. In turn, `NNc1ncc(C(F)(F)F)cc1Cl` had a melting point of 90 to 92 °C. As to `Nc1ccc2ccccc2c1N=Nc1ccccc1`, the melting point was 103 °C. The figure for `CC(C)(C)OC(=O)N1CCSCC1C(=O)O` (centres undefined) is 145 to 147 °C. The same measure for `CC(=O)c1cccc(Cl)c1O`: 80 to 83 °C; for `CCNc1ccc([N+](=O)[O-])cc1[N+](=O)[O-]`: 108 to 119 °C. The same measure for `Cc1ccc(S(=O)(=O)OCC2CO2)cc1` (centres undefined): 45 to 48 °C.

In turn, `N[C@@H](Cc1cc(Br)c(O)c(Br)c1)C(=O)O` registered a melting point of 245 °C.

`O=[N+]([O-])c1ccccc1OC1OC(CO)C(O)C(O)C1O` (centres undefined) returned a melting point of 195 °C. Take `Clc1ccncc1`: the melting point was -43.5 °C. `Cc1cc(=O)oc2[nH]nc(C)c12` came in with a melting point of 251 to 252 °C. The figure for `Cc1cc(Br)cc(Cl)c1N` is 38.5 °C; for `Cc1cccc(NC(=O)C(F)(F)C(F)(F)C(F)(F)C(F)(F)C(F)(F)C(F)(F)C(F)(F)C(F)(F)F)c1` it is 97 °C. The figure for `CC1(C)CCC2(C)CCC3(C)C(=CCC4C5(C)CCC(O)C(C)(C)C5CCC43C)C2C1` (centres undefined) is 197 °C; for `O=C1NCc2ccccc21` it is 151 °C.

`O=C(CCCCl)c1ccc(Br)cc1` returned a melting point of 37 °C. Compound `CC(NC(=O)CCCCNC(=O)C12CC3CC(CC(C3)C1)C2)C(=O)NC(CCC(=O)O)C(N)=O` (centres undefined) registered a melting point of 200 °C. The figure for `O=C(COc1ncn(-c2ccc(Cl)cc2)n1)NNC(=S)Nc1ccc(F)cc1` is 181 to 183 °C; for `CN(C)c1ccc(C2C3=C(CC(C)(C)CC3=O)Nc3ccc4ccccc4c32)cc1` (centres undefined) it is 327 °C; for `Cc1cc2c3c(c1)c(O)c(-c1ccccc1)c(=O)n3CCC2` it is 215 to 218 °C. Take `CC1(C)O[C@@H]2[C@H](O1)[C@@H]1C[C@H]2NC1=O`: the melting point is 150 to 152 °C. For `Nc1nc(=O)c2[nH]c(=S)[nH]c2[nH]1`, the melting point stood at 300 °C. The figure for `Nc1csc(C(F)(F)F)c1-c1ccccc1` is 65 to 66 °C. `CCOC(=O)[C@@H]1CC=CC[C@@H]1N` (relative stereo) displayed a melting point of 99 to 103 °C. The figure for `Cn1cc(-c2ccccc2)c(=O)c(-c2cccc(C(F)(F)F)c2)c1` is 154 °C; for `C=CCNc1nc(N)c(C(N)=O)s1` it is 158 to 160 °C. In turn, `O=Cc1cn2ccsc2n1` returned a melting point of 71 °C. The same measure for `O=C(O)Cc1cccc(CC(=O)O)c1`: 175 °C; for `O=C(Cc1ccccc1)C(Cc1ccccc1)=NNc1ccccc1`: 137 °C.

`NC(=O)c1sccc1Cl` registered a melting point of 105 to 107 °C.

The compound `Cc1ccc(C)c(C#N)c1` returned a melting point of 13 to 14 °C. The compound `O=C(O)c1cccc(OC(F)(F)C(F)F)c1` registered a melting point of 127 to 128 °C. The figure for `NNC(=O)C12CC3CC(CC(C3)C1)C2` is 151 to 153 °C; for `CCN(CC)CCOC(=O)C(c1ccccc1)c1ccccc1` it is 114 °C. The figure for `Cc1ccc(F)c(C=O)c1Cl` is 46 to 50 °C; for `Nc1c(F)ccc(Cl)c1F` it is 47 °C; for `CSc1nc(N)n[nH]1` it is 130 to 133 °C. `OC12Cc3ccccc3C(O)(Cc3ccccc31)O2`: the melting point was 160 to 167 °C. The same measure for `COC(=O)c1sccc1-c1ccc(C=O)o1`: 117 to 118 °C.
